Experimental data as given in patent publication US20220241308A1, “NEURONAL FUNCTION MODULATING AGENT” (University of Tsukuba, priority 2019, published 2022).

Tests used:
[1] = test system: senescence-accelerated mice (SAMP8); experiment: Animal experiment: Morris water maze test (platform test, probe test); format: in vivo; conditions: SAMP8, oral, 30 days, 2.17 mg malvidin-3,5-diglucoside/kg/day
Protocol: Mice and administration regimens used in the experiment are as described below. Breeding conditions are common to all groups.
Compound (M3,5G)-treated (SAMP8) group: Sample 5 was orally administered to 10 senescence-accelerated mice (SAMP8) (16 weeks old, weighing 28-30 g, Japan SLC, Inc.) for a period of 30 days at a daily dose of 2.17 mg of malvidin-3,5-diglucoside per kg of mouse body weight (designated as “Senescence-accelerated mice+Compound (M3,5G)” in FIGS. 11 to 13).
Extract-treated (SAMP8) group: Sample 4 was orally administered to 10 senescence-accelerated mice (SAMP8) (16 weeks old, weighing 28-30 g, Japan SLC, Inc.) for a period of 30 days at a daily dose of 25 mg of extract powder (2.17 mg of malvidin-3,5-diglucoside in […]) per kg of mouse body weight (designated as “Senescence-accelerated mice+Extract” in FIGS. 11 to 13). […]
Mice were released into the pool and the time taken for the mice to arrive at the platform was measured. […]
On the last day of the test, the platform was removed from the pool and the mice were again released into the pool. The number of times the mouse crossed the former platform location was counted and the time the mouse spent on the former platform location was measured.

SH-SY5Y cells = experiment: Reactive oxygen species measurement experiment (OxiSelect Intracellular ROS assay kit); format: cell-based; conditions: 12.56 μM with amyloid β protein 5 μM, 1 h
Protocol: Specifically, OxiSelect™ Intracellular ROS assay kit (Cell Biolabs Ink) was used to measure the reactive oxygen species level according to protocol recommended by Cell Biolabs Ink (URL: https://www.cellbiolabs.com/sites/default/files/STA-342-ROS-assay-kit.pdf)) of Cell Biolabs Ink Co., Ltd. (designated as “Control” in FIG. 10).
Each well of a 96-well plate (BD Biocoat) was seeded with SH-SY5Y cells (ATCC, model of neuronal cells) at a concentration of 2×10^5 cells/mL (100 μL/well) and the cells cultured at 37° C. and 5% CO2 for 24 h. Culture medium used was F12/DMEM (Gibco) supplemented with 1% non-essential amino acids (Gibco), 15% FBS (Bio West), and 1% penicillin/streptomycin (Lonza).
After 24 h, the culture medium was completely removed with an aspirator, 20×DCFH-DA (reagent included in the assay kit) was mixed with culture medium Opti-MEM (Gibco) (reagent was diluted 20 times), 100 μL of the mixture was added to each well, and the cells were cultured at 37° C. and 5% CO2 for 1 h. The culture medium Opti-MEM with 20×DCFH-DA was then completely removed with an aspirator, […] of fresh Opti-MEM (Gibco) was added to each well, and the cells were cultured at 37° C. and 5% CO2 for 1 h. […] Fluorescence at 480 nm/530 nm was measured on a microplate reader (Sumitomo Dainippon Pharma) to find the relative ROS production (designated as “Control” in FIG. 10). […]

COc1cc(-c2[o+]c3cc(O)cc(OC4OC(CO)C(O)C(O)C4O)c3cc2OC2OC(CO)C(O)C(O)C2O)cc(OC)c1O (stereo not drawn) [M3,5G, Malvidin-3,5-diglucoside chloride]
learn and memory ability of animals [1]: improvements
ROS production (SH-SY5Y cells; compared to “Aβ”): significant reductions
ROS production (SH-SY5Y cells; compared to “Control”): no significance
